Like-named read-outs stand apart in the source and are kept apart here.
Tests used:
[1] = target: Streptomyces avidinii streptavidin, wild type (WT); assay: Known Ka of ligand-WT streptavidin partners used for the analysis; type: binding; conditions: pH 10.0; estimated from experimentally-determined value for iminobiotin/avidin
From the text: Streptavidin, a protein produced by Streptomyces avidinii, forms a very strong and specific non-covalent complex with the water soluble vitamin biotin. […] See, Green, Adv. Prot. Chem. 29: 85-143 (1975).
Order of magnitude determinations of ΔKa for the mutants were estimated from the EC50, given the known Ka 's of some of these ligand-protein partners. […] These numbers are further supported by the independently determined biotin-binding affinities of the W79A and W120A mutants, which agree well with the ELISA estimates.

[2] = target: T1, Streptomyces avidinii core streptavidin variant W108F (Streptomyces avidinii, UniProt P22629, W132F); assay: ELISA concentration-dependent binding to iminobiotin/BSA; conditions: for EC50: Absolute EC50, ligand iminobiotin/BSA
T1 construct: core streptavidin, defined as residues 13-139 of the naturally occurring protein; made in house
Protocol: (§1) ELISA Assays. […] 2-Iminobiotin conjugated to bovine serum albumin (iminobiotin/BSA) was synthesized by reacting a twenty-fold molar excess of 2-iminobiotin N-hydroxysuccinimide ester (sigma) with 100 mg BSA in 100 mM NaHCO3, pH 8.3 for 12 hr at 4° C. with end-over-end stirring, followed by dialysis and gel filtration (G-25, Pharmacia) to separate iminobiotin/BSA from unreacted 2-iminobiotin. […] The next day the microwell plates were incubated with 200 μl per well of blocking buffer at pH 8.0 or pH 10.0 (50 mM sodium phosphate, pH 8.0 or 50 mM Na2 CO3, pH 10.0/100 mM NaCl/0.5% (w/v) BSA/0.05% (v/v) Tween-20) for at least 2 hr at room temperature and then incubated in ten-fold serial dilutions of 100 μg/ml WT streptavidin or mutants (100 μl/well) for 2 hr at room temperature, rinsed with blocking buffer at pH 8.0 or pH 10.0 (200 μl/well), and incubated for 1 hr at room temperature in 2×10^4 dilution of primary antistreptavidin antibodies (Sigma) in pH 8.0 or pH 10.0 blocking buffer (100 μl/well). The plates were rinsed three times with 200 μl per well blocking buffer at the assay pH, incubated with secondary anti-IgG/alkaline phosphatase conjugate (Sigma) for 1 hr at room temperature, rinsed three times with blocking buffer, and assayed for alkaline phosphatase activity at pH 10.0. Every plate assayed had triplicates for each protein concentration. The data were processed on Mathcad (Mathworks) to determine the equivalent bulk concentration at 50% saturation of binding (EC50) values using a published 4-parameter nonlinear fitting algorithm shown below (Jin et al., J. Mol. Biol. 226: 851-865 (1992)):
(§2) y=a+(d-a)/[1+exp (b(c-x))]
(§3) where a, b, c, and d are the adjustable fitting parameters; x=streptavidin concentration (μg/ml); y=absorbance at 405 nm. Absolute EC50 in μg ml^-1 are given by the value of the parameter c for the best fit of the fitting function to the binding isotherm. Relative EC50 values reported in Table I are EC50 (mutant)/EC50 (WT streptavidin).

[3] = target: T2, Streptomyces avidinii core streptavidin variant W120F (Streptomyces avidinii, UniProt P22629, W144F); assay: as above; conditions: Absolute EC50, ligand iminobiotin/BSA
T2 construct: core streptavidin, defined as residues 13-139 of the naturally occurring protein; made in house
Protocol: as §1, §2, §3

[4] = target: Streptomyces avidinii core streptavidin Trp→Ala mutants (WxA: W79A, W108A, W120A); assay: as above; conditions: ligand iminobiotin/BSA; pH 8/10; lower bound
Protocol: as §1, §2, §3

[5] = target: T3, Streptomyces avidinii core streptavidin variant W79F (Streptomyces avidinii, UniProt P22629, W103F); assay: as above; conditions: for EC50: Absolute EC50, ligand iminobiotin/BSA
T3 construct: core streptavidin, defined as residues 13-139 of the naturally occurring protein; made in house
Protocol: as §1, §2, §3

[6] = target: T4, Streptomyces avidinii core streptavidin (residues 13-139), wild type (WT) (Streptomyces avidinii, UniProt P22629); assay: ELISA concentration-dependent binding to biotin/BSA or iminobiotin/BSA; conditions: ligand iminobiotin/BSA, EC50 is protein concentration, read-out: Absolute EC50 (converted)
T4 construct: core streptavidin, defined as residues 13-139 of the naturally occurring protein; made in house
Protocol: ELISA Assays. […] 2-Iminobiotin conjugated to bovine serum albumin (iminobiotin/BSA) was synthesized by reacting a twenty-fold molar excess of 2-iminobiotin N-hydroxysuccinimide ester (sigma) with 100 mg BSA in 100 mM NaHCO3, pH 8.3 for 12 hr at 4° C. with end-over-end stirring, followed by dialysis and gel filtration (G-25, Pharmacia) to separate iminobiotin/BSA from unreacted 2-iminobiotin. […] The next day the microwell plates were incubated with 200 μl per well of blocking buffer at pH 8.0 or pH 10.0 (50 mM sodium phosphate, pH 8.0 or 50 mM Na2 CO3, pH 10.0/100 mM NaCl/0.5% (w/v) BSA/0.05% (v/v) Tween-20) for at least 2 hr at room temperature and then incubated in ten-fold serial dilutions of 100 μg/ml WT streptavidin or mutants (100 μl/well) for 2 hr at room temperature, rinsed with blocking buffer at pH 8.0 or pH 10.0 (200 μl/well), and incubated for 1 hr at room temperature in 2×10^4 dilution of primary antistreptavidin antibodies (Sigma) in pH 8.0 or pH 10.0 blocking buffer (100 μl/well). […]
where a, b, c, and d are the adjustable fitting parameters; x=streptavidin concentration (μg/ml); y=absorbance at 405 nm. […]

[7] = target: T5, Streptomyces avidinii core streptavidin variant W120A (Streptomyces avidinii, UniProt P22629, W144A); assay: Affinity of W120A for 2-iminobiotin; type: binding
T5 construct: core streptavidin, defined as residues 13-139 of the naturally occurring protein; made in house

[8] = target: T1, Streptomyces avidinii core streptavidin variant W108F; assay: Streptavidin-biotin dissociation rate (3H biotin, cold biotin chase, ultrafiltration) and transition state analysis; type: binding
Protocol: (§4) Fifty μl of the filtrate were mixed with 10 ml scintillation cocktail in triplicate and assayed for radioactivity in a liquid scintillation counter (LS-7000, Beckman Instruments, Fullerton, Calif.). […] Standard deviations were determined based on three independent measurements.

[9] = target: T6, Streptomyces avidinii core streptavidin, wild type (WT) (Streptomyces avidinii, UniProt P22629); assay: as above; type: binding
T6 construct: core streptavidin, defined as residues 13-139 of the naturally occurring protein; made in house
Protocol: as §4

[10] = target: T2, Streptomyces avidinii core streptavidin variant W120F; assay: as above; type: binding
Protocol: as §4

[11] = target: T3, Streptomyces avidinii core streptavidin variant W79F; assay: as above; type: binding
Protocol: as §4

[12] = target: T6, Streptomyces avidinii core streptavidin, wild type (WT); assay: Equilibrium binding of 3H-biotin (ultrafiltration spin-column assay); conditions: tight-binding limit; 0.2 nM total biotin; isotherm identical to W120F
Protocol: (§5) The free ligand was then separated from the protein-bound ligand by either Microcon-30 or Centriprep-30 centrigual ultrafiltration devices (Amicon, Inc.). Typically, 0.1-1 ml of the free ligand solution or the protein-ligand mixture was added to 18 ml liquid scintillation cocktail (Ecolume, ICN Biomedicals, Inc., Costa Mesa, Calif.) and assayed on a liquid scintillation counter (Beckman Instruments, Inc., Fullerton, Calif.). The Ka was determined from a nonlinear curve fit of the fraction of protein-bound ligand versus the free protein concentration.
(§6) This assay provides a useful estimate of the Ka when the affinities lie between 10^6 -10^9.

[13] = target: T2, Streptomyces avidinii core streptavidin variant W120F; conditions: tight-binding limit; 0.2 nM total biotin
Protocol: as §5, §6

[14] = target: T7, Streptomyces avidinii core streptavidin variant W79A (Streptomyces avidinii, UniProt P22629, W103A); assay: Equilibrium biotin-binding enthalpy and heat capacity (isothermal titrating calorimetry)
T7 construct: core streptavidin, defined as residues 13-139 of the naturally occurring protein; made in house
Protocol: (§7) The equilbrium binding enthalpies, ΔH°, and the heat capacities, ΔCp°, have also been […] with the streptavidin mutants (Table II). Heat capacities were determined as generally described in Murphy et al., Proteins: Structure, Function and Genetics 15:113-120 (1993), incorporated herein by reference.
(§8) The determination of ΔGr .noteq. by transition state analysis and the independent estimation of ΔG^0 from affinity measurements allows the drawing of free energy profiles for WT streptavidin and the Trp to Phe mutants. Similarly, the enthalpic energy profiles can be drawn from the equilibrium biotin-binding enthalpy (ΔH^0), independently determined by isothermal titrating calorimetry measurements, and ΔHr .noteq. available from transition state analysis of the temperature-dependent protein-ligand dissociation kinetics. The virtue of this analysis is that is allows the free energy barriers responsible for the off-rates of the different mutants to be delineated in terms of alterations in the transition state and/or the biotin-bound ground state, and further partitions these free energy changes into enthalpic and entropic components. Upon comparison with the results for WT streptavidin, the thermodynamic effects of mutating specific residues can then be mapped, providing considerable insight into the structure and energetics of the transition state.

[15] = target: T1, Streptomyces avidinii core streptavidin variant W108F; assay: as above
Protocol: as §7, §8

[16] = target: T6, Streptomyces avidinii core streptavidin, wild type (WT); assay: as above
Protocol: as §7, §8

[17] = target: T2, Streptomyces avidinii core streptavidin variant W120F; assay: as above
Protocol: as §7, §8

[18] = target: T3, Streptomyces avidinii core streptavidin variant W79F; assay: as above
Protocol: as §7, §8

[19] = target: T5, Streptomyces avidinii core streptavidin variant W120A; assay: as above
Protocol: as §7, §8

[20] = activation barrier of biotin dissociation
[21] = activation enthalpy of biotin dissociation, transition state analysis
[22] = equilibrium biotin binding enthalpy
[23] = heat capacity of biotin binding
[24] = biotin-bound ground state relative to WT

T6 sequence (P22629 37-163): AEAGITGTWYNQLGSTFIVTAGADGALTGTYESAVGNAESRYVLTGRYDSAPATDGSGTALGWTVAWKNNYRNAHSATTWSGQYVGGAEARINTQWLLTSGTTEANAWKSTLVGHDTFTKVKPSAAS
T2 sequence (P22629 37-163 W144F): as the sequence (P22629 37-163) above, with W108F counted along it
T3 sequence (P22629 37-163 W103F): as the sequence (P22629 37-163) above, with W67F counted along it
T5 sequence (P22629 37-163 W144A): as the sequence (P22629 37-163) above, with W108A counted along it
T1 sequence (P22629 37-163 W132F): as the sequence (P22629 37-163) above, with W96F counted along it
T7 sequence (P22629 37-163 W103A): as the sequence (P22629 37-163) above, with W67A counted along it
T4 sequence (P22629 37-163): as the sequence (P22629 37-163) above

Compound: N=C1N[C@H]2[C@H](CS[C@H]2CCCCC(=O)O)N1 [2-iminobiotin]
- Ka for iminobiotin/WT streptavidin [1]: 10^8 M^-1
- Kd [2]: 9260 to 9350 µM
- EC50 ([2]; pH 8): 39.5 µM
- EC50 ([2]; pH 10): 0.493 µM
- EC50 ([3]; pH 8): 42.2 µM
- EC50 ([3]; pH 10): 16.6 µM
- Absolute EC50 [4]: ≥ 100 µg/mL
- Kd [5]: 9260 to 9350 µM
- EC50 ([5]; pH 8): 34 µM
- EC50 ([5]; pH 10): 0.575 µM
- EC50 ([6]; pH 8): 0.189 µM
- EC50 ([6]; pH 10): 0.214 µM
- affinity for 2-iminobiotin [7]: < 10^3 M^-1

Compound: O=C(O)CCCC[C@@H]1SC[C@@H]2NC(=O)N[C@@H]21 [biotin]
- TΔSr≠ ([8]; T = 298K, biotin dissociation): 13.8 ± 0.9 kal mol^-1
- ΔGr≠ [8, 20]: 22.7 ± 1.3 kal mol^-1
- ΔHr≠ [8, 21]: 36.5 ± 0.9 kcal/mol
- ΔΔGr≠ = ΔGr≠(mutant) - ΔGr≠(WT) ([8]; biotin dissociation): -1.7 kal mol^-1
- ΔGr≠ (activation barrier for biotin dissociation) [9]: 24.4 kcal/mol
- TΔSr≠ ([9]; T = 298K, biotin dissociation): 7.6 ± 2.1 kal mol^-1
- ΔGr≠ [9, 20]: 24.4 ± 2.4 kal mol^-1
- t1/2 of biotin complex ([9]; biotin dissociation): 35 h
- ΔΔGr≠ = ΔGr≠(mutant) - ΔGr≠(WT) ([9]; biotin dissociation): 0 kal mol^-1
- TΔSr≠ ([10]; T = 298K, biotin dissociation): 6.6 ± 1.0 kal mol^-1
- ΔGr≠ [10, 20]: 21.9 ± 1.4 kal mol^-1
- ΔΔGr≠ = ΔGr≠(mutant) - ΔGr≠(WT) ([10]; biotin dissociation): -2.5 kal mol^-1
- TΔSr≠ ([11]; T = 298K, biotin dissociation): 11.6 ± 0.6 kal mol^-1
- ΔGr≠ [11, 20]: 23.3 ± 0.8 kal mol^-1
- ΔHr≠ [11, 21]: 34.9 ± 0.6 kcal/mol
- ΔΔGr≠ = ΔGr≠(mutant) - ΔGr≠(WT) ([11]; biotin dissociation): -1.1 kal mol^-1
- Ka (biotin) [12]: > 10^9
- Ka (biotin) [13]: > 10^9
- ΔH° [14, 22]: -18.5 kcal/mol
- ΔCp° [14, 23]: -357 cal/molK
- ΔH° [15, 22]: -23.5 kcal/mol
- ΔCp° [15, 23]: -386 cal/molK
- ΔH° [16, 22]: -24.5 kcal/mol
- ΔCp° [16, 23]: -345 cal/molK
- TΔΔS° (entropy term) ([17]; biotin binding, relative to WT): +2.4 kcal mol^-1
- ΔΔH° ([17]; biotin binding, relative to WT): +5.1 kcal mol^-1
- ΔΔG° [17, 24]: +2.7 kcal mol^-1
- ΔH° [17, 22]: -19.4 kcal/mol
- ΔCp° [17, 23]: -303 cal/molK
- TΔΔS° ([18]; biotin binding, relative to WT): -2.4 kcal/mol
- ΔΔH° ([18]; biotin binding, relative to WT): -1.5 kcal/mol
- ΔΔG° [18, 24]: +0.9 kcal mol^-1
- ΔH° [18, 22]: -25.9 kcal/mol
- ΔCp° [18, 23]: -266 cal/molK
- ΔH° [19, 22]: -12.8 kcal/mol
- ΔCp° [19, 23]: -272 cal/molK

Reference: patent US6156493A, “Modified-affinity streptavidin” (priority 1997, dated 2000)
